ChEMBL document CHEMBL1201862, “PubChem BioAssay data set” (2004)
Activity calls are given as the source filed them.

Columns and labels:
[1] = Counterscreen for IDE inhibitors: Luminescence-based cell-based high throughput dose response assay to identify compounds that are cytotoxic to HEK cells. [Related pubchem assays: 434962 (Primary screen (IDE inhibitors in singlicate)), 449730 (Counterscreen (Cytotoxicity in triplicate)), 435028 (Confirmation (IDE inhibitors in triplicate)) …; type: functional; details: HEK293
Insulin-degrading enzyme = molecular target: T1, Insulin-degrading enzyme (Homo sapiens, UniProt P14735); experiment: Dose Response: Fluorescence polarization-based cell-based high throughput dose response assay for inhibitors of insulin-degrading enzyme (IDE). [Related pubchem assays: 434962 (Primary screen (IDE inhibitors in singlicate)), 449730 (Counterscreen (Cytotoxicity in triplicate)), 435028 (Confirmation (IDE inhibitors in triplicate)), 434984 (Summary …; type: functional
T1 sequence (P14735 whole entry): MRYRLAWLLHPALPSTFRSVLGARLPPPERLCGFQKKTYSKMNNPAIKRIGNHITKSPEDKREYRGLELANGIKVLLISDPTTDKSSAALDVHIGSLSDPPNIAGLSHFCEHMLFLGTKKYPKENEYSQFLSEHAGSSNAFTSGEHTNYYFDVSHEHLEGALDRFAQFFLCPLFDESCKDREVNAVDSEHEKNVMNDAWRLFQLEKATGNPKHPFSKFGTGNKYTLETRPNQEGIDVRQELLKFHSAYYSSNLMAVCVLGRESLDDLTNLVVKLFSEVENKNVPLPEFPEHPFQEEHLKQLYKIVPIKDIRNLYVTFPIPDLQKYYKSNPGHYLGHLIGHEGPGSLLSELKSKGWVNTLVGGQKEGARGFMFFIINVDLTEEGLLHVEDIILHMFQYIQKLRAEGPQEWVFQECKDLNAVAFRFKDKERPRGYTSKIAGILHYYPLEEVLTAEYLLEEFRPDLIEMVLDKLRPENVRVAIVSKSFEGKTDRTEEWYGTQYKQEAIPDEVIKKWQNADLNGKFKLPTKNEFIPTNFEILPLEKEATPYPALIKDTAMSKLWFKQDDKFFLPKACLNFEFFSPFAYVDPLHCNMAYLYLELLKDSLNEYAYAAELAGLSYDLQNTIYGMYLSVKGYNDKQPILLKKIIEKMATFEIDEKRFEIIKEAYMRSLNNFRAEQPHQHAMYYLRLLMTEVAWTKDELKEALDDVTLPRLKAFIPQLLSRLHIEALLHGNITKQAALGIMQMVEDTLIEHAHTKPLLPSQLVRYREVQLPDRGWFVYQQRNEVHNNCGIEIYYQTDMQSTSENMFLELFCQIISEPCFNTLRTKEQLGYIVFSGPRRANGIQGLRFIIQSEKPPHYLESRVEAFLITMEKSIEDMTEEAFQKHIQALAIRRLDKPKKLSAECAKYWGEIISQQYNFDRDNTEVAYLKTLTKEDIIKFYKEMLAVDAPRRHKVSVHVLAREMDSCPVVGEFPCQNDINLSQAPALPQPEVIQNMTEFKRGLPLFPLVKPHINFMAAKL

[2] = molecular target: Potassium voltage-gated channel subfamily KQT member 2 (Rattus norvegicus, UniProt O88943, W236L); experiment: potentiation of rat KCNQ2 current – cell-based, automated electrophysiology, mechanism study for KCNQ2 potentiator project, dose response (AID 2603); type: functional
Chain of Potassium voltage-gated channel subfamily KQT member 2 (O88943 whole entry W236L): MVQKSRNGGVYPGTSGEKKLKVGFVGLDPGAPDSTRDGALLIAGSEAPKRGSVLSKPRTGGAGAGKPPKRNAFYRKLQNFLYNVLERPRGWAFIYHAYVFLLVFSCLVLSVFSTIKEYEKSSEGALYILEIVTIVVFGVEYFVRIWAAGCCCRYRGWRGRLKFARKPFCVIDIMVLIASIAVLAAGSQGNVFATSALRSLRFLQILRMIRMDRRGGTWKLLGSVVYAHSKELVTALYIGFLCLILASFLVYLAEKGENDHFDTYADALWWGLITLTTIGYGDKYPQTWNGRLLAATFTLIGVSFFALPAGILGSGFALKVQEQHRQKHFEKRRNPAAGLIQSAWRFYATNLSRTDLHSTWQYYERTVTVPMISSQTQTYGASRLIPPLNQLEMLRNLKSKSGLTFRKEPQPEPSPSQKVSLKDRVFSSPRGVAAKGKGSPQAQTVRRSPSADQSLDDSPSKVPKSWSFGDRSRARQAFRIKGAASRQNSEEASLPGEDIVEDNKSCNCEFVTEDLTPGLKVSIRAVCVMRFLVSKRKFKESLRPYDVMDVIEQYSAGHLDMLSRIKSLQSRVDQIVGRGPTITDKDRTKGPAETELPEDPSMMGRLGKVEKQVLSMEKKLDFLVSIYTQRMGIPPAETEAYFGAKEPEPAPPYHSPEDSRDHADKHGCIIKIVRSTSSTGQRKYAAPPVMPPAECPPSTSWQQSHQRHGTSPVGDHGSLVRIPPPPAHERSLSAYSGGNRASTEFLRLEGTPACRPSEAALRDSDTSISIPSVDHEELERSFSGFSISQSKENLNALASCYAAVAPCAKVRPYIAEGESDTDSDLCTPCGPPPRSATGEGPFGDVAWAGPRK

[3] = molecular target: T2, Replicative DNA helicase DnaB (Mycobacterium tuberculosis, UniProt P9WMR3); experiment: DnaB intein splicing inhibitors, dose response, biochemical, cell-free fluorescence (AID 449749); type: functional
T2 sequence (P9WMR3 whole entry): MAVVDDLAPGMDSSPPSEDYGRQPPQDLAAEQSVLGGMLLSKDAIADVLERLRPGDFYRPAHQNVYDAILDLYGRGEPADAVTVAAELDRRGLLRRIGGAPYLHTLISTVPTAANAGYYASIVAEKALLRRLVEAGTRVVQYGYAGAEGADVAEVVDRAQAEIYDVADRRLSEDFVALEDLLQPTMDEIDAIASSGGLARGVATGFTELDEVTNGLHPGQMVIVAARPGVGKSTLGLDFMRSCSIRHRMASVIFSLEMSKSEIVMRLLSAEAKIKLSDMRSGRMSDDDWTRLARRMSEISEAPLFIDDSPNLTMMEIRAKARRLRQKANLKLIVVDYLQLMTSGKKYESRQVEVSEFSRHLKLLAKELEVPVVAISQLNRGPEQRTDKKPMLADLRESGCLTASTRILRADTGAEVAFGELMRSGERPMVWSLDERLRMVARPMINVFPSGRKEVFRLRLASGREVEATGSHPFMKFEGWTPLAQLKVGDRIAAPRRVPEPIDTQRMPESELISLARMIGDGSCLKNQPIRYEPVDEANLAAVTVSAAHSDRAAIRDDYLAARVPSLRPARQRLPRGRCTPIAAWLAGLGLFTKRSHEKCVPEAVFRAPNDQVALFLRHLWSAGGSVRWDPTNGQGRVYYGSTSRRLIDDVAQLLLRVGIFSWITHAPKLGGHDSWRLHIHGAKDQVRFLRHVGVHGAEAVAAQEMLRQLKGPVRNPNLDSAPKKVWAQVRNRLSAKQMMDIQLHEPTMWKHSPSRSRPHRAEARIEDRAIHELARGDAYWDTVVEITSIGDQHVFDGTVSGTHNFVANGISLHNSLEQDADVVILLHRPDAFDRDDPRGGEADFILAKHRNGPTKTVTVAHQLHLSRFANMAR

Vero [4] = experiment: viability of Vero cells under compound – cytotoxicity control for flavivirus capping enzyme inhibitors (AID 588742); type: functional; details: Chlorocebus sabaeus
Protein RecA = molecular target: T3, Protein RecA (Mycobacterium tuberculosis, UniProt P9WHJ3); experiment: Fluorescence Cell-Free Homogeneous Dose Retest to Identify Inhibitors of RecA-Intein Splicing Activity. [Related pubchem assays (depositor defined):AID2097, AID2223, AID489010, AID492950]; type: functional
T3 sequence (P9WHJ3 whole entry): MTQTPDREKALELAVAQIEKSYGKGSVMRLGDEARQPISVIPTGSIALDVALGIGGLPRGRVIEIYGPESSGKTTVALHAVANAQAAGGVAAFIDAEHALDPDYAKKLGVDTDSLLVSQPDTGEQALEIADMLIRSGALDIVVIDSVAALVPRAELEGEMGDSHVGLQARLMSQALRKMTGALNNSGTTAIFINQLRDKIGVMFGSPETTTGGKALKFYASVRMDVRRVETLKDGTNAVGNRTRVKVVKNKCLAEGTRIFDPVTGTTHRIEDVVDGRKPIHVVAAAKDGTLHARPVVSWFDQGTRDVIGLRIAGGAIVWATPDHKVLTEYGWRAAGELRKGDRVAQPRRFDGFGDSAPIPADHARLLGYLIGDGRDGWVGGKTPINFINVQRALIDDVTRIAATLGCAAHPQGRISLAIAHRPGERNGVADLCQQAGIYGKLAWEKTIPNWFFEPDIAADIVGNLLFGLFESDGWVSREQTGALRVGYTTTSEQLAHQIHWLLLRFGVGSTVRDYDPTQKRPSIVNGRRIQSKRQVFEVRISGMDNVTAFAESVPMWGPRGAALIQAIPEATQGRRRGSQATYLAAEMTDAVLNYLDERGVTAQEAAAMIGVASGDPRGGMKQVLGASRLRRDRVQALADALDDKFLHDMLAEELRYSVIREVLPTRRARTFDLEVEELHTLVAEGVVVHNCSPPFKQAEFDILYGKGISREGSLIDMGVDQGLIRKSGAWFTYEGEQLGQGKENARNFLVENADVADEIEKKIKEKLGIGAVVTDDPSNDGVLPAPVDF

Genome polyprotein = Genome polyprotein (dengue virus type 2, UniProt P29990); experiment: flavivirus cap methylation enzyme inhibition – biochemical, confirmation dose response, primary screen (AID 588689); type: functional
Chain of Genome polyprotein (P29990 2492-3391 limits assumed): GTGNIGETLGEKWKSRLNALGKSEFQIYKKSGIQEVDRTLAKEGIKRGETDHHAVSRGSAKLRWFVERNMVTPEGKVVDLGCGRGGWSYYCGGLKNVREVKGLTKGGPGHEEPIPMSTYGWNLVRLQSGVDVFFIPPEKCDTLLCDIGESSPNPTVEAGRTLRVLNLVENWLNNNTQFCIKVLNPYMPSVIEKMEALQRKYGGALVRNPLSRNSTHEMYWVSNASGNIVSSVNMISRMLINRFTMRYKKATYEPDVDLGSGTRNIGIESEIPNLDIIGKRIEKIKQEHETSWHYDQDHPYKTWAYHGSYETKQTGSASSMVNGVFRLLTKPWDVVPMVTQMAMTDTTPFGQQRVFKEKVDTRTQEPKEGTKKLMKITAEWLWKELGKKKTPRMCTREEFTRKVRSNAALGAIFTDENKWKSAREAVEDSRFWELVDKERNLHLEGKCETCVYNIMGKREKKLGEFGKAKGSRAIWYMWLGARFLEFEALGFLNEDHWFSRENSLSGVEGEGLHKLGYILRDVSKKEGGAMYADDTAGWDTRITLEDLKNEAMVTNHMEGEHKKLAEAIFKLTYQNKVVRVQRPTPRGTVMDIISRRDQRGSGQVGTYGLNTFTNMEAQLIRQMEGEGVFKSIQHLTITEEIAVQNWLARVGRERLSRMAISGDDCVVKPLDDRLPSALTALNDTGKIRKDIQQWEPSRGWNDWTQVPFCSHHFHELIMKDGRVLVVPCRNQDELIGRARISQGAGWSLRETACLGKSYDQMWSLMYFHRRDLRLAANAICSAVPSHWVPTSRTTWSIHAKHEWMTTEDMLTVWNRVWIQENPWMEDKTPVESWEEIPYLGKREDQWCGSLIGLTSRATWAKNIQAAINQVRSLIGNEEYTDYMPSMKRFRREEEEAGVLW

[5] = reduction of Shn3 3'UTR-driven luciferase in osteoblasts – cell-based, Clone20 osteoblasts, firefly luciferase, cherry-picked, dose response (AID 624132); type: functional;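 further: firefly luciferase luminescence from reporter carrying the Shn3 3'UTR in osteoblasts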
[6] = loss of viability in HepG2 cells – cell-based, CellTiter-Glo, cherry-picked, cytotoxicity control for Shn3 inhibitor project, dose response (AID 624134); type: functional
[7] = non-specific 3'UTR reporter inhibition in Clone20-Shn3RL – cell-based, Renilla luciferase, cherry-picked, counter-screen for Shn3 inhibitor project, dose response (AID 624133); type: functional
[8] = molecular target: T4, Hepatocyte nuclear factor 4-alpha (Homo sapiens, UniProt P41235); type: functional, cell-based;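 further: biochemical luminescence-based dose-response counterscreen measuring inhibition of HNF4 dimerization, run alongside a screen for blockers of ABHD5–perilipin-5 interaction; split luciferase complementation of HNF4 fusion proteins in cell lysate measuring dimerization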
T4 sequence (P41235 whole entry): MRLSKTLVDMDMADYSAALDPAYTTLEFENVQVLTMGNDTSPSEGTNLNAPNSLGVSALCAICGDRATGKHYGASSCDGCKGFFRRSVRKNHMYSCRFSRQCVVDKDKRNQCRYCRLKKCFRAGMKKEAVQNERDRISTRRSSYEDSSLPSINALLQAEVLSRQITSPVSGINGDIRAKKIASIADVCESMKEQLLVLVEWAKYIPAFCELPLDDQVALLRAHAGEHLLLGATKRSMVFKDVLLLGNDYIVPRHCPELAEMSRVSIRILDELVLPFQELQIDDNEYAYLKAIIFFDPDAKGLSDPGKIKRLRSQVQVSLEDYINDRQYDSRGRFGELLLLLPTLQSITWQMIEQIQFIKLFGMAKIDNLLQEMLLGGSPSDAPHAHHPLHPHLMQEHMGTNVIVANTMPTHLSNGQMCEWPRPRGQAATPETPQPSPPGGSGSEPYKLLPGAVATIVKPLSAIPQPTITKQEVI

[9] = molecular target: Mothers against decapentaplegic homolog 3 (Homo sapiens, UniProt P84022); experiment: blockers of Smad3 complex formation in lysate – cell lysate, secondary confirmation, chemiluminescent ELISA, HEK293 lysate, dose response (AID 1058); type: functional
Chain of Mothers against decapentaplegic homolog 3 (P84022 whole entry): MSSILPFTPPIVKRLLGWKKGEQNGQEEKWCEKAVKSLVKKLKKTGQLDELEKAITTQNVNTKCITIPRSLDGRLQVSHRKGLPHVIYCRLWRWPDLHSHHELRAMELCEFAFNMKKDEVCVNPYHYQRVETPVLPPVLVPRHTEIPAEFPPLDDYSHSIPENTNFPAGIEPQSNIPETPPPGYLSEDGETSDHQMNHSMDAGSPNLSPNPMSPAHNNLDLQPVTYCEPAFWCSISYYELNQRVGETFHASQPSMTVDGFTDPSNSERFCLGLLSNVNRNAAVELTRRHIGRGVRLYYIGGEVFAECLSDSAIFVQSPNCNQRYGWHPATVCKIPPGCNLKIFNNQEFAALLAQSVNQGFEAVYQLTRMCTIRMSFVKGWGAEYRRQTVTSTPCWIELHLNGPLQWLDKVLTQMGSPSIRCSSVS

Vasopressin V1a receptor = Vasopressin V1a receptor (Homo sapiens, UniProt P37288); experiment: Counterscreen for Oxytocin Receptor (OXTR) agonists: Fluorescence-based cell-based high throughput dose response assay to identify agonists of the vasopressin 1 receptor (V1R). [Related pubchem assays: 2435 (Primary screen (OXTR agonists in singlicate)), 434991 (Counterscreen (V1R agonists in triplicate)), 2482 (Summary (OXTR agonists)) …; type: functional
Chain of Vasopressin V1a receptor (P37288 whole entry): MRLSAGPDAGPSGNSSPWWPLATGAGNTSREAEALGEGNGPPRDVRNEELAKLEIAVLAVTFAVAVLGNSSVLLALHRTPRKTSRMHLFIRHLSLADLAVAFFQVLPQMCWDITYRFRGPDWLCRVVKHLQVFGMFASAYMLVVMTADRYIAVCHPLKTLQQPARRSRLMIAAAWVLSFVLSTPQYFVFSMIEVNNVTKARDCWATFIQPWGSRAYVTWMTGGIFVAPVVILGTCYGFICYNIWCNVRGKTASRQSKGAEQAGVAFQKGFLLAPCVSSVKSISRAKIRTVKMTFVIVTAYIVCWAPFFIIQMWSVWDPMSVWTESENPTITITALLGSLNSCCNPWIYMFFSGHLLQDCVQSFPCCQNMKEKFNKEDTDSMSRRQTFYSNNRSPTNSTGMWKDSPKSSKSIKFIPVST

Oxytocin receptor = Oxytocin receptor (Homo sapiens, UniProt P30559); experiment: Fluorescence-based cell-based high throughput dose response assay for agonists of the Oxytocin Receptor (OXTR). [Related pubchem assays: 2435 (Primary screen (OXTR agonists in singlicate)), 434991 (Counterscreen (V1R agonists in triplicate)), 2482 (Summary (OXTR agonists)), 434963 (Confirmation screen (OXTR agonists in triplicate))]; type: functional
Chain of Oxytocin receptor (P30559 whole entry): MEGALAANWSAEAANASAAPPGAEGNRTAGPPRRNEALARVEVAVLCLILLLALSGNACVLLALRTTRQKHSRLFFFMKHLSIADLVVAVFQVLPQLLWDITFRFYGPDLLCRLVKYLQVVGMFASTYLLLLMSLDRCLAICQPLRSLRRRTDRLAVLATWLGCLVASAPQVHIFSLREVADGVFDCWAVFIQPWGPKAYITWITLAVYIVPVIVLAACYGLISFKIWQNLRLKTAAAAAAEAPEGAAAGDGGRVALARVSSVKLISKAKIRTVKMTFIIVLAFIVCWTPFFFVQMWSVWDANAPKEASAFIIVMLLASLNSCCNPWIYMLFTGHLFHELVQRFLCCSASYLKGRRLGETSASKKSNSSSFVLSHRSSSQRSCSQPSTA

Vero [10] = experiment: cells; type: functional; details: Chlorocebus sabaeus

## Cc1c(NC(=O)/C(C#N)=C/c2ccc(-c3ccc(Cl)cc3)o2)c(=O)n(-c2ccccc2)n1C
[1]
  IC50: 11.1 µM (not active)
Insulin-degrading enzyme
  IC50: 2.7 µM (active)

## CSc1nnc(NC(=O)c2nc(S(=O)(=O)Cc3ccc(C)cc3)ncc2Cl)s1
[2]
  EC50: 34.9 µM (active)
[3]
  AC50: 5.31 µM (active)
Vero [4]
  CC50: 30.9 µM (active)
Protein RecA
  EC50: 3.26 µM (active)
Genome polyprotein
  IC50: 40.5 µM (active)
[5]
  AC50: 3.18 µM (active)
[6]
  AC50: > 70 µM (inactive)
[7]
  AC50: 11.1 µM (active)
[8]
  IC50: 4.93 µM (active)

## CN(C)c1ccc(C(c2cc3c(cc2O)OCO3)N2CCOCC2)cc1 (stereo not given)
[9]
  IC50: > 40 µM (not active)

## Cc1ccc(NS(=O)(=O)c2ccc(C(=O)NCC(c3ccco3)N3CCCCC3)cc2)cc1 (stereo not given)
Vasopressin V1a receptor
  EC50: > 29.9 µM (not active)
Oxytocin receptor
  EC50: > 29.9 µM (not active)
Vero [10]
  CC50: > 25 µM (active)
